Measurements taken from US11607418B2, “Methods of treating SARS-CoV-2 infections” (Tyme, Inc., priority 2020, dated 2023).
Converted amounts (≈) assume the structure as drawn.

Key:
[1] = tested on: SARS-CoV-2 (USA-WA1/2020 strain); test: SARS-CoV-2 neutralization assay, cytopathic effects (CPE) in Vero E6 cells; format: cell-based; settings: for Day 2 CPE / Day 4 CPE: 1.25 mg/mL, five replicate wells
[2] = tested on: SARS-CoV-2 infection / COVID-19; test: TUDCA capsules taken by persons with or exposed to COVID-19; format: in vivo; settings: 500 mg capsule twice per day
[3] = pre-incubation with virus 60 minutes
[4] = simultaneous addition of drug and virus, ~100 TCID50/well

SMILES | Day 2 CPE [1, 3] | Day 2 CPE [1, 4] | Day 4 CPE [1, 4] | EC50 ([1]; Severe acute respiratory syndrome coronavirus 2, Vero C1008, calculated by the Quest Graph EC50 Calculator, inhibition of SARS-CoV-2 CPE in Vero E6 cells) [µg/mL] | Health outcome of member who tested positive for SARS-CoV-2 with COVID-19 symptoms ([2]; Example 2, oral, one rescue squad member) | COVID-19 symptoms despite repeated exposure to COVID-19 patients ([2]; Example 2, twelve rescue squad members, at least 3 months) | Health outcome of subject presenting with COVID-19 symptoms ([2]; Example 3, one subject)
C[C@H](CCC(=O)NCCS(=O)(=O)[O-])[C@H]1CC[C@H]2[C@@H]3[C@@H](O)C[C@@H]4C[C@H](O)CC[C@]4(C)[C@H]3CC[C@]12C.[Na+] [Sodium TUDCA] | no CPE | no CPE | no CPE | – | – | – | –
CC(CCC(=O)NCCS(=O)(=O)O)C1CCC2C3C(O)CC4CC(O)CCC4(C)C3CCC12C (stereo not shown) [TUDCA acid, tauroursodeoxycholic acid] | no CPE | no CPE | no CPE | 980 (≈ 1960 µM) | – | – | –
CC(CCC(=O)NCCS(=O)(=O)O)C1CCC2C3C(O)CC4CC(O)CCC4(C)C3CCC12C (stereo not shown) [TUDCA, tauroursodeoxycholic acid] | – | – | – | – | health returned to normal | None of the other twelve members have presented with COVID-19 symptoms | health returned to normal
